Experiment: Aqueous solubility of apixaban
Type: physicochemical
Details: aqueous medium, aqueous buffer; room temperature, pH 6.8

solubility: < 1 µg/mL
SMILES: COc1ccc(-n2nc(C(N)=O)c3c2C(=O)N(c2ccc(N4CCCCC4=O)cc2)CC3)cc1 [apixaban, 1-(4-methoxyphenyl)-7-oxo-6-[4-(2-oxopiperidin-1-yl)phenyl]-4,5,6,7-tetrahydro-1H-pyrazolo[3.4-c]pyridine-3-carboxamide]

From patent US20170202826A1, “DOSAGE FORMS OF APIXABAN” (Pfizer Inc., priority 2009, published 2017)
